Measurements as given in patent US4782072A, “Thiadiazole derivative” (Reckitt & Colman Products Limited, priority 1986, dated 1988).

Key:
[1] = electroshock test (MES), rat; format: in vivo; settings: read-out: ED50 (limits) RAT MES
Protocol: (§1) The pharmacological activity of the compound of the invention has been determined according to the following procedures. Its anticonvulsant activity was determined in the metrazol antagonism test in both mice and rats (MMS) (Soaje-Echaque E; Lim RKS, J Pharmac Exp Ther 1962, 138, 224; Desmedt LKC; Niemegeers CJE; Lewi PJ; Janssen PAJ, Arzneim-Forsch (Drug Res), 1976, 26, 1592) and the electroshock test (MES) (Perry JK; Tower DB; Woodbury DM; Walter RD, "Experimental Models of Epilepsy", editor Purpura DP; Raven Press: New York, 1972, 434).

[2] = metrazol antagonism test (MMS), rat; format: in vivo; settings: read-out: ED50 (limits) RAT MMS
Protocol: as §1

[3] = electroshock test (MES), mouse; format: in vivo
Protocol: as §1

[4] = metrazol antagonism test (MMS), mouse; format: in vivo; settings: read-out: ED50 (limits) MOUSE MMS
Protocol: as §1

in vivo = settings: for TD50 ip at time of peak effect / TD50 po at 1 hour: rotarod; for TD50 ip at time of peak effect: at time of peak anticonvulsant effect; for TD50 po at 1 hour: dose at which 50% of trained animals fall off the rotarod
Protocol: An assessment of the neurotoxicity of the compound was carried out in mice using the rotarod test (Collier, HOJ; Fieller, EC; Hall, RA, Analyst, 1949, 74, 592).
^a Dose at which 50% of trained animals fall off the rotarod.
^b Protective index is calculated by dividing the TD50 (ip at
time of peak anticonvulsant effect) by the ED50 under the same

[5] = anticonvulsant tests (MES and MMS), rat and mouse, summary; format: in vivo; settings: for anticonvulsant activity: electrically and chemically induced seizures
Protocol: as §1

[6] = ip, mouse, MES, i.p., at time of peak effect, read-out: ED50 (limits) MES at time of peak effect
[7] = mouse, MES, oral, t=1 hour, read-out: ED50 (limits) MOUSE MES
[8] = mouse, in vivo, ip, protective index (PI)

SMILES	ED50 ([1]; rat, MES, oral, t=1 hour) [mg/kg]	ED50 ([2]; rat, MMS, oral, t=1 hour) [mg/kg]	ED50 [3, 6] [mg/kg]	Time of peak effect ([3]; mouse, MES, i.p.) [min]	ED50 [3, 7] [mg/kg]	ED50 ([4]; mouse, MMS, oral, t=1 hour) [mg/kg]	selectivity ratio (in vivo; [8])	TD50 ip at time of peak effect (in vivo; ip)	TD50 po at 1 hour (in vivo)	also measured
NCc1nnc(-c2ccccc2-c2ccccc2)s1 [Example, 2-Aminomethyl-5-(2-biphenylyl)-1,3,4-thiadiazole]	10	9	7	10	22	20	6.5	45(23-68) mg/kg	318(230-471) mg/kg	rate of absorption ([5]; inferred from time of peak effect, ip and oral, in words): very rapid rate of absorption; time of peak effect by both methods of administration ([5]; intraperitoneal and oral routes, after dosing): ten and twenty; anticonvulsant activity ([5]; rat and mouse, in words, listed as compound of Formula 1): potent anticonvulsant activity; anticonvulsant activity ([5]; rat and mouse, in words, listed as the compound): potent anticonvulsant, blocking both electrically and chemically induced seizures; effectiveness by intraperitoneal and oral routes ([5]; rat and mouse, in words): effective by both the intraperitoneal and oral routes; potency relative to established anticonvulsant drugs ([5]; rat and mouse, in words): comparable with established anticonvulsant drugs
NC(=O)N1c2ccccc2C=Cc2ccccc21 [carbamazepine]	4	3	6	20	20	11	11	67(29-108) mg/kg	166(104-282) mg/kg	protective index (PI) (in vivo; in vivo, ip): 11.1
CCC1(c2ccccc2)C(=O)NC(=O)NC1=O [phenobarbital]				30				86(54-140) mg/kg	68(52-92) mg/kg	ED50 ([1]; Rattus norvegicus, po, 1 h): 9 mg/kg; ED50 ([2]; Rattus norvegicus, po, 1 h): 4 mg/kg; ED50 ([3]; Mus musculus, ip, read-out: ED50 (limits) MES at time of peak effect): 18 mg/kg; ED50 ([3]; Mus musculus, po, 1 h, read-out: ED50 (limits) MOUSE MES): 12 mg/kg; ED50 ([4]; Mus musculus, po, 1 h): 4 mg/kg
O=C1NC(=O)C(c2ccccc2)(c2ccccc2)N1 [phenytoin]	14	12	8	60	8	8		56(27-74) mg/kg	216(154-239) mg/kg	selectivity ratio (in vivo; in vivo, ip): 7
